Test results reported in the NIST ThermoML archive (doi:10.1016/j.tca.2011.11.036).
Numbers after ± are expanded uncertainties.

Assay: molar heat capacity at constant pressure; xn = mol fraction of the nth substance listed
Details: 101 kPa, Liquid, Small sample (50 mg) DSC

Compound: C[N+](C)(C)CCO.[Cl-] [choline chloride] + OCC(O)CO
- molar heat capacity at constant pressure (303.15 K, x1 = 0.3333): 237.7 ± 3.7 J/K/mol
- molar heat capacity at constant pressure (308.15 K, x1 = 0.3333): 239.1 ± 3.7 J/K/mol
- molar heat capacity at constant pressure (313.15 K, x1 = 0.3333): 240.8 ± 3.7 J/K/mol
- molar heat capacity at constant pressure (318.15 K, x1 = 0.3333): 241.9 ± 3.7 J/K/mol
- molar heat capacity at constant pressure (323.15 K, x1 = 0.3333): 243.5 ± 3.8 J/K/mol
- molar heat capacity at constant pressure (328.15 K, x1 = 0.3333): 244.9 ± 3.8 J/K/mol
- molar heat capacity at constant pressure (333.15 K, x1 = 0.3333): 246.9 ± 3.8 J/K/mol
- molar heat capacity at constant pressure (338.15 K, x1 = 0.3333): 248.4 ± 3.8 J/K/mol
- molar heat capacity at constant pressure (343.15 K, x1 = 0.3333): 250.3 ± 3.9 J/K/mol
- molar heat capacity at constant pressure (348.15 K, x1 = 0.3333): 252.1 ± 3.9 J/K/mol
- molar heat capacity at constant pressure (353.15 K, x1 = 0.3333): 254.3 ± 3.9 J/K/mol

Compound: C[N+](C)(C)CCO.[Cl-] [choline chloride] + OCCO
- molar heat capacity at constant pressure (303.15 K, x1 = 0.3333): 190.8 ± 3 J/K/mol
- molar heat capacity at constant pressure (308.15 K, x1 = 0.3333): 192.2 ± 3 J/K/mol
- molar heat capacity at constant pressure (313.15 K, x1 = 0.3333): 194 ± 3 J/K/mol
- molar heat capacity at constant pressure (318.15 K, x1 = 0.3333): 194.9 ± 3 J/K/mol
- molar heat capacity at constant pressure (323.15 K, x1 = 0.3333): 196.4 ± 3 J/K/mol
- molar heat capacity at constant pressure (328.15 K, x1 = 0.3333): 197.6 ± 3.1 J/K/mol
- molar heat capacity at constant pressure (333.15 K, x1 = 0.3333): 199.2 ± 3.1 J/K/mol
- molar heat capacity at constant pressure (338.15 K, x1 = 0.3333): 200.6 ± 3.1 J/K/mol
- molar heat capacity at constant pressure (343.15 K, x1 = 0.3333): 202.1 ± 3.1 J/K/mol
- molar heat capacity at constant pressure (348.15 K, x1 = 0.3333): 203.9 ± 3.2 J/K/mol
- molar heat capacity at constant pressure (353.15 K, x1 = 0.3333): 205.6 ± 3.2 J/K/mol

Compound: NC(N)=O [urea] + C[N+](C)(C)CCO.[Cl-]
- molar heat capacity at constant pressure (303.15 K, x2 = 0.3333): 181.4 ± 2.8 J/K/mol
- molar heat capacity at constant pressure (308.15 K, x2 = 0.3333): 182.2 ± 2.8 J/K/mol
- molar heat capacity at constant pressure (313.15 K, x2 = 0.3333): 183.2 ± 2.8 J/K/mol
- molar heat capacity at constant pressure (318.15 K, x2 = 0.3333): 183.5 ± 2.8 J/K/mol
- molar heat capacity at constant pressure (323.15 K, x2 = 0.3333): 184.5 ± 2.9 J/K/mol
- molar heat capacity at constant pressure (328.15 K, x2 = 0.3333): 185.3 ± 2.9 J/K/mol
- molar heat capacity at constant pressure (333.15 K, x2 = 0.3333): 186.4 ± 2.9 J/K/mol
- molar heat capacity at constant pressure (338.15 K, x2 = 0.3333): 187.4 ± 2.9 J/K/mol
- molar heat capacity at constant pressure (343.15 K, x2 = 0.3333): 188.5 ± 3 J/K/mol
- molar heat capacity at constant pressure (348.15 K, x2 = 0.3333): 189.5 ± 2.9 J/K/mol
- molar heat capacity at constant pressure (353.15 K, x2 = 0.3333): 190.8 ± 3.1 J/K/mol
